Consider two compounds from patent publication US11970497B2, “Tricyclic AKR1C3 dependent KARS inhibitors” (Novartis AG, priority 2019, dated 2024).

Experiment [1] concerns Hara (NRF2 pathway wild type cell line with low AKR1C3 expression). Kind of experiment: In vitro cell proliferation assay (CellTiter-Glo), Hara. It is filed as cell-based. The settings on record: 72 h; Hara cells, 3 days, CellTiter-Glo, top concentration 10 μM; read-out: HARA Qualified absolute AC50. Put shortly: (§1)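 Luminescent CellTiter-Glo readout after 3-day compound exposure at 37 °C; 8-point 1:5 series, top 10 μM final. Seeding: 800 cells/well for H460, 2000 cells/well for Hara, RPMI-1640 plus 10% FBS. AC50 and percentage activity derived after normalizing to DMSO (1%) and MG132 (30 μM) controls.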

In experiment [2] the test system is H460 (NRF2 pathway mutant cell line with high AKR1C3 expression). Kind of experiment: In vitro cell proliferation assay (CellTiter-Glo), H460. Conditions: Homo sapiens, NCI-H460, 72 h; H460 cells, 3 days, CellTiter-Glo, top concentration 10 μM; read-out: H460 Qualified absolute AC50. It is filed as cell-based. The procedure, abridged: as §1
Experiment [3] concerns NCI-H524. Nature of the experiment: Expanded lung cancer cell line proliferation assay. It is filed as cell-based. The settings on record: Homo sapiens; NCI-H524, 72 h, average of PrestoBlue and Cell Titer Glo; AKR1C3 0.8 TPM; read-out: Absolute Qualified AC50. The procedure, abridged:
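Lung cancer lines plated at density set by doubling time are treated in triplicate for 72 h with compound up to 1 μM final. Cell viability is measured by resazurin reduction and ATP luminescence; Absolute Qualified AC50 values average the two readouts after control-based normalization.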
A general note: ATP-based viability assays read luminescence as a measure of living cells.

The test system of experiment [4] is NCI-H1944 (KEAP1 mutant, AKR1C3 expressing) cell line derived lung cancer xenografts. Kind of experiment: PK/PD in NCI-H1944 xenograft (tumor DDIT3 and EGR1 mRNA induction). Conditions: single oral administration. It is filed as in vivo, mice. The procedure: Compound 40 Dose Dependent Pharmacokinetics and Pharmacodynamic (PK/PD) Changes in the KEAP1 Mutant AKR1C3 Expressing Human Lung Cancer Xenograft NCI-H1944
The PK/PD relationship of Compound 40 was assessed in nude mice with established subcutaneous NCI-H1944 (KEAP1 mutant, AKR1C3 expressing) cell line derived lung cancer xenografts (FIG. 2). After a single oral administration of Compound 40, blood and tumor were collected to explore the PK profile of Compound 40 levels in blood and tumor. Compound 152, the active metabolite of the prodrug Compound 40 that inhibits KARS was also measured in tumor and blood. The PK data were compared to the tumor PD marker readouts of DDIT3 and EGR1 mRNA induction, downstream transcriptional readouts of KARS inhibition.

`O=C1CC2(CCN(C(=O)NCc3ccc(F)cc3)CC2)Nc2ccc(F)cc21` [Example 40]: the AC50 was 1790 nM in experiment [1], 83 nM in experiment [2] and > 1000 nM in experiment [3]. Further, in experiment [4] (dose escalation, NCI-H1944 xenografts), the “duration of the induction of DDIT3 and EGR1 mRNA levels” value is listed as “increased with dose escalation”. Also, in experiment [4] (nude mice with NCI-H1944 xenografts), the “tumor PD markers (DDIT3 and EGR1 mRNA induction) after dosing” value is “remained elevated for 24 hours post-dose”.

For the compound `CN1c2ccc(F)cc2C(=O)CC12CCN(C(=O)NCc1ccc(F)c(NCCO)c1)CC2` [Example 36, 6′-fluoro-N-(4-fluoro-3-((2-hydroxyethyl)amino)benzyl)-1′-methyl-4′-oxo-3′,4′-dihydro-1′H-spiro[piperidine-4,2′-quinoline]-1-carboxamide], the AC50 was 1560 nM in experiment [1], 78 nM in experiment [2] and > 1000 nM in experiment [3].

A word on the AC50: it is the concentration giving half of the maximal activity seen.
